Laboratory results taken from patent US20250154686A1, “COMPOUND LIBRARY” (CHUGAI SEIYAKU KABUSHIKI KAISHA, priority 2021, published 2025).

Biological target: T1, Bcl-2 protein (Recombinant Human Bcl-2 Protein) (Homo sapiens, UniProt P10415)
T1 construct: purchased Novus Biologicals NBP2-34889
Experiment: AS-MS evaluation of binding of the Example 4 mixture library (1200 compounds/well) to Bcl-2, ASMS ratio (%)
Settings: mixture library, value belongs to the MS peak assigned to the compound; for ASMS ratio (%) n = 1: replicate n = 1; for ASMS ratio (%) n = 2: replicate n = 2
How it was run: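 A pooled 1200-compound mixture (20 nM each final) was incubated with 20 μM recombinant human Bcl-2 in pH 7.4 Tris-HCl buffer with NaCl, Tween-20 and DTT for 1 h at 23° C. in the dark. Bound ligands were separated by spin-column SEC and measured by reverse-phase LC/MS; ASMS ratio (%) was calculated against protein-free unfiltered standard and protein-free SEC blank.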

T1 sequence (P10415 whole entry): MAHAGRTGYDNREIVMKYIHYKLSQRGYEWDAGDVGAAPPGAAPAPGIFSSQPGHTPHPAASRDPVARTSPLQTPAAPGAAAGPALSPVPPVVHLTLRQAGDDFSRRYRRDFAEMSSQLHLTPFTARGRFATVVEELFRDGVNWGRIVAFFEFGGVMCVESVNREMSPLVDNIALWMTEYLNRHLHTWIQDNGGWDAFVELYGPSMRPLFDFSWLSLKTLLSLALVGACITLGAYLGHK

ASMS ratio (%) n = 1 [%]	ASMS ratio (%) n = 2 [%]	SMILES
0.0	0.0	CCOc1cccc(-c2ccc(CN3CCN(c4ccc(C(=O)NS(C)(=O)=O)nn4)CC3)cc2C)c1 [Compound B2I073-01, 6-[4-[[4-(3-Ethoxyphenyl)-3-methylphenyl]methyl]piperazin-1-yl]-N-methylsulfonylpyridazine-3-carboxamide]
0.0	0.0	CCOc1cccc(-c2ccc(CN3CCN(c4ccc(C(=O)NS(C)(=O)=O)nn4)CC3)c(CC)c2)c1 [Compound B2I075-01, 6-[4-[[4-(3-Ethoxyphenyl)-2-ethylphenyl]methyl]piperazin-1-yl]-N-methylsulfonylpyridazine-3-carboxamide]
0.0	0.0	CCOc1cccc(-c2ccc(CN3CCN(c4ccc(C(=O)NS(C)(=O)=O)nn4)CC3)cc2F)c1 [Compound B2I077-01, 6-[4-[[4-(3-Ethoxyphenyl)-3-fluorophenyl]methyl]piperazin-1-yl]-N-methylsulfonylpyridazine-3-carboxamide]
0.0	0.0	CCOc1cccc(-c2ccc(CN3CCN(c4ccc(C(=O)NS(C)(=O)=O)nn4)CC3)c(OC)c2)c1 [Compound B2I079-01, 6-[4-[[4-(3-Ethoxyphenyl)-2-methoxyphenyl]methyl]piperazin-1-yl]-N-methylsulfonylpyridazine-3-carboxamide]
0.0	0.0	CCOc1cccc(-c2cc(CN3CCN(c4ccc(C(=O)NS(C)(=O)=O)nn4)CC3)cc(OCC)c2)c1 [Compound B2I081-01, 6-[4-[[3-Ethoxy-5-(3-ethoxyphenyl)phenyl]methyl]piperazin-1-yl]-N-methylsulfonylpyridazine-3-carboxamide]
0.0	1.9	CCOc1cncc(-c2cc(CN3CCN(c4ccc(C(=O)NS(C)(=O)=O)nn4)CC3)cc(OCC)c2)c1 [Compound B2I082-01, 6-[4-[[3-Ethoxy-5-(5-ethoxypyridin-3-yl)phenyl]methyl]piperazin-1-yl]-N-methylsulfonylpyridazine-3-carboxamide]
0.0	0.0	CCOc1cccc(-c2cc(CN3CCN(c4ccc(C(=O)NS(C)(=O)=O)nn4)CC3)cc(OC(C)C)c2)c1 [Compound B2I083-01, 6-[4-[[3-(3-Ethoxyphenyl)-5-propan-2-yloxyphenyl]methyl]piperazin-1-yl]-N-methylsulfonylpyridazine-3-carboxamide]
−0.9	−1.5	CCOc1cncc(-c2cc(CN3CCN(c4ccc(C(=O)NS(C)(=O)=O)nn4)CC3)cc(OC(C)C)c2)c1 [Compound B2I084-01, 6-[4-[[3-(5-Ethoxypyridin-3-yl)-5-propan-2-yloxyphenyl]methyl]piperazin-1-yl]-N-methylsulfonylpyridazine-3-carboxamide]
1.3	−0.9	CCOc1cccc(-c2cc(CN3CCN(c4ccc(C(=O)NS(C)(=O)=O)nn4)CC3)cc(C(F)(F)F)c2)c1 [Compound B2I087-01, 6-[4-[[3-(3-Ethoxyphenyl)-5-(trifluoromethyl)phenyl]methyl]piperazin-1-yl]-N-methylsulfonylpyridazine-3-carboxamide]

Further lines, the compound ahead of its results:

SMILES	ASMS ratio (%) n = 1 [%]	ASMS ratio (%) n = 2 [%]
CCOc1cccc(-c2cc(CN3CCN(c4ccc(C(=O)NS(C)(=O)=O)cc4)CC3)cc(C(F)(F)F)c2)c1 [Compound B2I061-01, 4-[4-[[3-(3-Ethoxyphenyl)-5-(trifluoromethyl)phenyl]methyl]piperazin-1-yl]-N-methylsulfonylbenzamide]	−0.8	0.5
CCOc1cncc(-c2cc(CN3CCN(c4ccc(C(=O)NS(C)(=O)=O)cc4)CC3)cc(C(F)(F)F)c2)c1 [Compound B2I062-01, 4-[4-[[3-(5-Ethoxypyridin-3-yl)-5-(trifluoromethyl)phenyl]methyl]piperazin-1-yl]-N-methylsulfonylbenzamide]	0.0	0.0
CCOc1cccc(-c2cc(CN3CCN(c4ccc(C(=O)NS(C)(=O)=O)cc4)CC3)cc(OC(F)(F)F)c2)c1 [Compound B2I063-01, 4-[4-[[3-(3-Ethoxyphenyl)-5-(trifluoromethoxy)phenyl]methyl]piperazin-1-yl]-N-methylsulfonylbenzamide]	0.9	0.0
CCOc1cncc(-c2cc(CN3CCN(c4ccc(C(=O)NS(C)(=O)=O)cc4)CC3)cc(OC(F)(F)F)c2)c1 [Compound B2I064-01, 4-[4-[[3-(5-Ethoxypyridin-3-yl)-5-(trifluoromethoxy)phenyl]methyl]piperazin-1-yl]-N-methylsulfonylbenzamide]	0.0	0.0
CCOc1cccc(-c2ccc(CN3CCN(c4ccc(C(=O)NS(C)(=O)=O)cc4)CC3)c3ccccc23)c1 [Compound B2I065-01, 4-[4-[[4-(3-Ethoxyphenyl)naphthalen-1-yl]methyl]piperazin-1-yl]-N-methylsulfonylbenzamide]	0.0	0.0
CCOc1cncc(-c2ccc(CN3CCN(c4ccc(C(=O)NS(C)(=O)=O)cc4)CC3)c3ccccc23)c1 [Compound B2I066-01, 4-[4-[[4-(5-Ethoxypyridin-3-yl)naphthalen-1-yl]methyl]piperazin-1-yl]-N-methylsulfonylbenzamide]	0.0	0.0
CCOc1cccc(-c2csc(CN3CCN(c4ccc(C(=O)NS(C)(=O)=O)cc4)CC3)c2)c1 [Compound B2I067-01, 4-[4-[[4-(3-Ethoxyphenyl)thiophen-2-yl]methyl]piperazin-1-yl]-N-methylsulfonylbenzamide]	0.0	0.0
CCOc1cncc(-c2csc(CN3CCN(c4ccc(C(=O)NS(C)(=O)=O)cc4)CC3)c2)c1 [Compound B2I068-01, 4-[4-[[4-(5-Ethoxypyridin-3-yl)thiophen-2-yl]methyl]piperazin-1-yl]-N-methylsulfonylbenzamide]	0.0	0.0
CCOc1cccc(C#Cc2ccccc2CN2CCN(c3ccc(C(=O)NS(C)(=O)=O)cc3)CC2)c1 [Compound B2I069-01, 4-[4-[[2-[2-(3-Ethoxyphenyl)ethynyl]phenyl]methyl]piperazin-1-yl]-N-methylsulfonylbenzamide]	0.0	−2.2
CCOc1cncc(C#Cc2ccccc2CN2CCN(c3ccc(C(=O)NS(C)(=O)=O)cc3)CC2)c1 [Compound B2I070-01, 4-[4-[[2-[2-(5-Ethoxypyridin-3-yl)ethynyl]phenyl]methyl]piperazin-1-yl]-N-methylsulfonylbenzamide]	–	0.0
CCOc1cccc(-c2ccccc2CN2CCN(c3ccc(C(=O)NS(C)(=O)=O)nn3)CC2)c1 [Compound B2I071-01, 6-[4-[[2-(3-Ethoxyphenyl)phenyl]methyl]piperazin-1-yl]-N-methylsulfonylpyridazine-3-carboxamide]	−1.2	−1.9
CCOc1cncc(-c2ccccc2CN2CCN(c3ccc(C(=O)NS(C)(=O)=O)nn3)CC2)c1 [Compound B2I072-01, 6-[4-[[2-(5-Ethoxypyridin-3-yl)phenyl]methyl]piperazin-1-yl]-N-methylsulfonylpyridazine-3-carboxamide]	0.8	1.3
CCOc1cncc(-c2ccc(CN3CCN(c4ccc(C(=O)NS(C)(=O)=O)nn4)CC3)cc2C)c1 [Compound B2I074-01, 6-[4-[[4-(5-Ethoxypyridin-3-yl)-3-methylphenyl]methyl]piperazin-1-yl]-N-methylsulfonylpyridazine-3-carboxamide]	0.0	−8.4
CCOc1cncc(-c2ccc(CN3CCN(c4ccc(C(=O)NS(C)(=O)=O)nn4)CC3)c(CC)c2)c1 [Compound B2I076-01, 6-[4-[[4-(5-Ethoxypyridin-3-yl)-2-ethylphenyl]methyl]piperazin-1-yl]-N-methylsulfonylpyridazine-3-carboxamide]	0.2	−3.2
CCOc1cncc(-c2ccc(CN3CCN(c4ccc(C(=O)NS(C)(=O)=O)nn4)CC3)cc2F)c1 [Compound B2I078-01, 6-[4-[[4-(5-Ethoxypyridin-3-yl)-3-fluorophenyl]methyl]piperazin-1-yl]-N-methylsulfonylpyridazine-3-carboxamide]	0.0	0.0
CCOc1cncc(-c2ccc(CN3CCN(c4ccc(C(=O)NS(C)(=O)=O)nn4)CC3)c(OC)c2)c1 [Compound B2I080-01, 6-[4-[[4-(5-Ethoxypyridin-3-yl)-2-methoxyphenyl]methyl]piperazin-1-yl]-N-methylsulfonylpyridazine-3-carboxamide]	0.0	–
CCOc1cccc(-c2cc(OC)c(CN3CCN(c4ccc(C(=O)NS(C)(=O)=O)nn4)CC3)c(OC)c2)c1 [Compound B2I085-01, 6-[4-[[4-(3-Ethoxyphenyl)-2,6-dimethoxyphenyl]methyl]piperazin-1-yl]-N-methylsulfonylpyridazine-3-carboxamide]	0.0	0.0
CCOc1cncc(-c2cc(OC)c(CN3CCN(c4ccc(C(=O)NS(C)(=O)=O)nn4)CC3)c(OC)c2)c1 [Compound B2I086-01, 6-[4-[[4-(5-Ethoxypyridin-3-yl)-2,6-dimethoxyphenyl]methyl]piperazin-1-yl]-N-methylsulfonylpyridazine-3-carboxamide]	0.0	0.0
